biological target: T1, human GPR120 (Homo sapiens, UniProt Q5NUL3); test: Intracellular Ca2+ assay in human GPR120 stable cell line (FLIPR Calcium 4 dye, Flexstation); type: cell-based; conditions: % activity at 2.5 µM compared to the maximal activity of the compound of Example 25 at 2.5 µM (=100%); HEK293 cells co-expressing Gqi5
T1 construct: host or cells: HEK293 cells co-expressing Gqi5
T1 sequence (Q5NUL3 1-361): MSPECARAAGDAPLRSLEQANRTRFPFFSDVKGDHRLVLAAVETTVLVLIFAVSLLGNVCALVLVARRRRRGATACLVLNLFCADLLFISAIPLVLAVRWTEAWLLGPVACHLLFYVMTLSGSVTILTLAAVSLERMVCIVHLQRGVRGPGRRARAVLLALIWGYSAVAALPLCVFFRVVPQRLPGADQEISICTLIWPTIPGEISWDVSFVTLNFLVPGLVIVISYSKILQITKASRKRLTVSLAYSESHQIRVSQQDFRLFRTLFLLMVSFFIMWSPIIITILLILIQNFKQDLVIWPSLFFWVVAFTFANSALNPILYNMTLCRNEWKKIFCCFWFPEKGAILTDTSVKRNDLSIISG
Procedure: Human GPR120 stable cell line was purchased from Multispan Inc (26219 Eden Landing Road, Hayward, CA94545). This GPR120 cell line was generated in HEK293 cells co-expressing Gqi5. In this cell line, the Flag epitope tag (DYKDDDDK) was fused to the amino terminus of human GPR120 protein.
The concentration of intracellular Ca^2+ was measured as described below. Human GPR120 cells were plated in 96 well plates (Poly-D-Lysine coated black/clear Plate, Greiner Bio-One) at 70,000 cells per well and cultured overnight in conditions of 37°C and 5% CO2. A Ca^2+ assay dye stock solution was prepared by adding 10 mL of assay buffer (HBSS/20mM HEPES, pH 7.4) to FLIPR Calcium 4 Assay Bulk Kit (Molecular Devices). The 10 mL of Ca^2+ assay dye solution was prepared by further diluting 0.5 mL of Ca^2+ assay dye stock solution with 10 mL of assay buffer. The medium of the cells was removed and immediately 100 µL of the Ca^2+ assay dye solution was dispensed into each well followed by incubation at 37°C and 5% CO2 for 50 minutes to incorporate the Ca^2+ dye into the cells. The cell plate was then placed in the Flexstation (Molecular Devices) for 20 minutes at 37°C. Compounds were dissolved in 100% DMSO and diluted to desired concentrations with assay buffer and placed in the Flexstation simultaneously with the cell plate for 20 minute incubation at 37°C prior to reading. Fluorescence intensity was measured immediately following compound addition (25 µL/well) on the Flexstation at an excitation wavelength of 485 nm and an emission wavelength of 525 with 515 nm auto cutoff. The resulting increase in fluorescence intensities corresponds to increases in intracellular Ca^2+ levels.
Compounds were dissolved in 100% DMSO to a concentration of 20 mM to provide stock solutions. To determine activity against human GPR120, compounds were added with human GPR120 stably expressing cells (described above), at eight desired concentrations ranging from 0.00001 to 20 µM, in 96 well plates and fluorescence intensities were measured for 90 seconds with 2-second intervals. An EC50 value (concentration of the GPR120 agonist where 50% of the agonist's maximal activity is observed) was calculated using the changes (Max-Min) of fluorescence intensity.
To determine percent activity for a tested compound, the fluorescence intensity value obtained at a particular concentration were compared to the maximal fluorescence intensity value obtained for reference compound GW9508 (4-[[(3-phenoxyphenyl)methyl]amino]benzene propanoic acid; British Journal of Pharmacology 2006 148, 619-628) or the compound of Example 25. When GW9508 was used as the reference compound, the maximal activity of GW9508 at 6.7µM was designated as 100% activity. When the compound of Example 25 was used as the reference compound, the maximal activity of the compound of Example 25 at 2.5 µM was designated as 100% activity. Typically, the GW9508 activity reached a maximum at a concentration of approximately 6.7 µM and typically the compound of Example 25 reached a maximum activity at approximately 2.5µM. […]

Row | % Activity (Ex. 25 Reference Compound) [%] | Compound
1 | 105.8 | CC1(C)Cc2cc(F)cc(COc3ccc(C4CC4C(=O)O)cc3)c2O1 (stereo not shown) [Example 131B, 2-(4-((5-fluoro-2,2-dimethyl-2,3-dihydrobenzofuran-7-yl)methoxy)phenyl) cyclopropanecarboxylic acid]

same assay, conditions: % activity at 2.5 µM compared to the maximal activity of the compound of Example 25 at 2.5 µM (=100%); HEK293 cells co-expressing Gqi5; read-out: % Activity (Ex. 25 Reference Compound)

Row | Compound | activity at 2.5 µM [%]
2 | CC1(C)Cc2cc(F)cc(CCc3ccc(OCC(=O)O)cc3)c2O1 [Example 70, 2-(4-(2-(5-fluoro-2,2-dimethyl-2,3-dihydrobenzofuran-7-yl)ethyl)phenoxy)acetic acid] | 118

same assay, conditions: HEK293, % activity at 2.5 µM compared to the maximal activity of the compound of Example 25 at 2.5 µM (=100%); HEK293 cells co-expressing Gqi5; read-out: % Activity (Ex. 25 Reference Compound)

Row | activity at 2.5 µM [%] | Compound
3 | 125 | CC(C)Oc1ccc(Cl)cc1COc1cc2c(cc1F)C(CC(=O)O)CC2 (stereo not shown) [Example 257, 2-(5-((5-chloro-2-isopropoxybenzyl)oxy)-6-fluoro-2,3-dihydro-1H-inden-1-yl)acetic acid]
4 | 116 | CCc1cc(OCc2cc(F)cc3c2OC(C)(C)C3)c(F)cc1CCC(=O)O [Example 220, 3-(2-ethyl-5-fluoro-4-((5-fluoro-2,2-dimethyl-2,3-dihydrobenzofuran-7-yl)methoxy)phenyl)propanoic acid]
5 | 153 | CC1(C)Cc2cc(Cl)cc(CNc3ccc(CCC(=O)O)cc3)c2O1 [Example 127, 3-(4-(((5-chloro-2,2-dimethyl-2,3-dihydrobenzofuran-7-yl)methyl)amino)phenyl) propanoic acid]
6 | 172 | CC1(C)Cc2cc(F)cc(COc3ccc(CCCC(=O)O)cc3)c2O1 [Example 160, 4-(4-((5-fluoro-2,2-dimethyl-2,3-dihydrobenzofuran-7-yl)methoxy)phenyl)butanoic acid]
7 | 155 | CC(CC(=O)O)c1cc(F)c(OCc2cc(Cl)cc3c2OC(C)(C)C3)c(F)c1 (stereo not shown) [Example 106, 3-(4-((5-chloro-2,2-dimethyl-2,3-dihydrobenzofuran-7-yl)methoxy)-3,5-difluorophenyl)butanoic acid]
8 | 98.5 | CC1(C)Cc2c(COc3ccc4c(c3)CCC4CC(=O)O)ccc(F)c2O1 (stereo not shown) [Example 94, 2-(5-((7-fluoro-2,2-dimethyl-2,3-dihydrobenzofuran-4-yl)methoxy)-2,3-dihydro-1H-inden-1-yl)acetic acid]
9 | 138 | CC1(C)Cc2cc(Cl)cc(COc3ccc4c(c3)CC[C@H]4CC(=O)O)c2O1 [Example 176, (S)-2-(5-((5-chloro-2,2-dimethyl-2,3-dihydrobenzofuran-7-yl)methoxy)-2,3-dihydro-1H-inden-1-yl)acetic acid]
10 | 151 | CC1(C)Cc2cc(F)cc(COc3cc(Cl)c(CCC(=O)O)c(Cl)c3)c2O1 [Example 197, 3-(2,6-dichloro-4-((5-fluoro-2,2-dimethyl-2,3-dihydrobenzofuran-7-yl)methoxy)phenyl)propanoic acid]
11 | 152 | CC1(C)Cc2cc(F)cc(COc3ccc4c(c3)CC[C@H]4CC(=O)O)c2O1 [Example 175, (S)-2-(5-((5-fluoro-2,2-dimethyl-2,3-dihydrobenzofuran-7-yl)methoxy)-2,3-dihydro-1H-inden-1-yl)acetic acid]
12 | 139 | [2H]C1([2H])c2cc(Cl)cc(COc3ccc(CC(C)C(=O)O)cc3C(F)(F)F)c2OC1(C)C (stereo not shown) [Example 147, 3-(4-((3,3-dideuterio-5-chloro-2,2-dimethyl-2,3-dihydrobenzofuran-7-yl)methoxy)-3-(trifluoromethyl)phenyl)-2-methylpropanoic acid]
13 | 134 | CC1(C)Cc2cc(Cl)cc(COc3ccc(CCC(=O)O)c(-c4ccccc4)c3)c2O1 [Example 71, 3-(5-((5-chloro-2,2-dimethyl-2,3-dihydrobenzofuran-7-yl)methoxy)-[1,1'-biphenyl]-2-yl)propanoic acid]
14 | 109 | COc1cc(CCC(=O)O)c(Br)cc1OCc1cc(F)cc2c1OC(C)(C)C2 [Example 56, 3-(2-bromo-4-((5-fluoro-2,2-dimethyl-2,3-dihydrobenzofuran-7-yl)methoxy)-5-methoxyphenyl)propanoic acid]
15 | 125 | CC(Cc1ccc(OCc2c(F)ccc3c2CC(C)(C)O3)cc1)C(=O)O (stereo not shown) [Example 96, 3-(4-((5-fluoro-2,2-dimethyl-2,3-dihydrobenzofuran-4-yl)methoxy)phenyl)-2-methylpropanoic acid]
16 | 115 | CC1(C)Cc2cc(Cl)cc(COc3ccc4c(c3)CC(C(=O)O)C4)c2O1 (stereo not shown) [Example 112, 5-((5-chloro-2,2-dimethyl-2,3-dihydrobenzofuran-7-yl)methoxy)-2,3-dihydro-1H-indene-2-carboxylic acid]
17 | 114 | Cc1cc(OCc2cc(F)cc3c2OC(C)(C)C3)ccc1CCC(=O)O [Example 46, 3-(4-((5-fluoro-2,2-dimethyl-2,3-dihydrobenzofuran-7-yl)methoxy)-2-methylphenyl)propanoic acid]
18 | 114 | CC(Cc1ccc(OCc2cc(Cl)cc3c2OCC3(C)C)cc1)C(=O)O (stereo not shown) [Example 148, 3-(4-((5-chloro-3,3-dimethyl-2,3-dihydrobenzofuran-7-yl)methoxy)phenyl)-2-methylpropanoic acid]
19 | 107 | CC1(C)Cc2cc(F)cc(COc3ccc4c(c3)CCCC4CC(=O)O)c2O1 (stereo not shown) [Example 153, 2-(6-((5-fluoro-2,2-dimethyl-2,3-dihydrobenzofuran-7-yl)methoxy)-1,2,3,4-tetrahydronaphthalen-1-yl)acetic acid]
20 | 149 | CC1(C)Cc2cc(Cl)cc(COc3ccc(C(C)(C)CC(=O)O)cc3)c2O1 [Example 156, 3-(4-((5-chloro-2,2-dimethyl-2,3-dihydrobenzofuran-7-yl)methoxy)phenyl)-3-methylbutanoic acid]

same assay, conditions: HEK293, % activity at 5 µM compared to the maximal activity of GW9508 at 6.7 µM (=100%); HEK293 cells co-expressing Gqi5; read-out: %Activity (GW9508 Reference Compound)

Row | activity at 5 µM [%] | Compound
21 | 113 | CC(Cc1cc(F)c(OCc2cccc3c2OC(C)(C)C3)c(F)c1)C(=O)O (stereo not shown) [Example 23, 3-(4-((2,2-dimethyl-2,3-dihydrobenzofuran-7-yl)methoxy)-3,5-difluorophenyl)-2-methylpropanoic acid]
22 | 110 | CC(Cc1cc(F)c(OCc2ccc(F)c3c2OC(C)(C)C3)c(F)c1)C(=O)O (stereo not shown) [Example 28, 3-(3,5-difluoro-4-((4-fluoro-2,2-dimethyl-2,3-dihydrobenzofuran-7-yl)methoxy)phenyl)-2-methylpropanoic acid]
23 | 113 | CC(Cc1cc(F)c(OCc2cccc3c2CC(C)(C)O3)c(F)c1)C(=O)O (stereo not shown) [Example 21, 3-(4-((2,2-dimethyl-2,3-dihydrobenzofuran-4-yl)methoxy)-3,5-difluorophenyl)-2-methylpropanoic acid]
24 | 111 | Cc1cc(COc2ccc(CC(C)C(=O)O)cc2)c2c(c1)CC(C)(C)O2 (stereo not shown) [Example 4, 2-methyl-3-(4-((2,2,5-trimethyl-2,3-dihydrobenzofuran-7-yl)methoxy)phenyl)propanoic acid]
25 | 135 | CC(Cc1cc(F)c(OCc2cccc3c2OC(C)(C)CC3)c(F)c1)C(=O)O (stereo not shown) [Example 2, 3-(4-((2,2-dimethylchroman-8-yl)methoxy)-3,5-difluorophenyl)-2-methylpropanoic acid]
